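Compound exposure: 48 hours, 5 concentrations, 96-well plates. GI50: concentration for 50% inhibition of growth.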 Activity calls are given as the source filed them. No stated cut-off is given here; in the data, active = GI50 up to about 1.1 µM and inactive = higher.
Assays:
Assay in all cases: NCI tumour cell line growth inhibition, 48 h
T47D = tested on: T47D
RXF 393 = tested on: RXF 393
HOP-92 = tested on: HOP-92
HCC 2998 = tested on: HCC 2998
TK-10 = tested on: TK-10
K562 = tested on: K562
HL-60 = tested on: HL-60
Hs-578T = tested on: Hs-578T
DU-145 = tested on: DU-145
U-251 = tested on: U-251
OVCAR-4 = tested on: OVCAR-4
RPMI-8226 = tested on: RPMI-8226
SNB-19 = tested on: SNB-19
NCI-H460 = tested on: NCI-H460
SF-295 = tested on: SF-295
HOP-62 = tested on: HOP-62
SK-MEL-5 = tested on: SK-MEL-5
PC-3 = tested on: PC-3
SF-539 = tested on: SF-539
ACHN = tested on: ACHN

| Structure (SMILES) | GI50 (T47D) | GI50 (RXF 393) | GI50 (HOP-92) | GI50 (HCC 2998) | GI50 (TK-10) | GI50 (K562) | GI50 (HL-60) | GI50 (Hs-578T) | GI50 (DU-145) | GI50 (U-251) | GI50 (OVCAR-4) | GI50 (RPMI-8226) | GI50 (SNB-19) | GI50 (NCI-H460) | GI50 (SF-295) | GI50 (HOP-62) | GI50 (SK-MEL-5) | GI50 (PC-3) | GI50 (SF-539) | GI50 (ACHN) |
| --- | --- | --- | --- | --- | --- | --- | --- | --- | --- | --- | --- | --- | --- | --- | --- | --- | --- | --- | --- | --- |
| CCCCNC(=O)OCCN=c1c2ccccc2ccc2ccccc12 | 75 µM (inactive) | > 100 µM (inactive) | > 100 µM (inactive) | > 100 µM (inactive) | > 100 µM (inactive) | > 100 µM (inactive) | > 100 µM (inactive) | > 100 µM (inactive) | > 100 µM (inactive) | > 100 µM (inactive) | > 100 µM (inactive) | > 100 µM (inactive) | > 100 µM (inactive) | > 100 µM (inactive) | > 100 µM (inactive) | > 100 µM (inactive) | > 100 µM (inactive) | > 100 µM (inactive) | > 100 µM (inactive) | > 100 µM (inactive) |
| CO[C@@H]1C[C@H]2[C@@H]3CC[C@H]([C@@H](C)CO)[C@@]3(C)CC[C@@H]2[C@@]2(C)CC[C@H]3C[C@]312 | 20 µM (inactive) | 19.2 µM (inactive) | 18.9 µM (inactive) | 33.1 µM (inactive) | > 100 µM (inactive) | 22.8 µM (inactive) | 25.2 µM (inactive) | 27.2 µM (inactive) | 85.5 µM (inactive) | 14.6 µM (inactive) | 33.2 µM (inactive) | 25 µM (inactive) | 53.6 µM (inactive) | 20.9 µM (inactive) | 30.5 µM (inactive) | 46.8 µM (inactive) | 16.7 µM (inactive) | 22.6 µM (inactive) | 43.1 µM (inactive) | 26.5 µM (inactive) |
| CCOC(=O)c1nc2cc(C(F)(F)F)ccc2nc1Oc1ccc(C(=O)OC)cc1 | > 100 µM (inactive) | 85.5 µM (inactive) | > 100 µM (inactive) | > 100 µM (inactive) | > 100 µM (inactive) | > 100 µM (inactive) | 35.1 µM (inactive) | > 100 µM (inactive) | > 100 µM (inactive) | > 100 µM (inactive) | 78.7 µM (inactive) | > 100 µM (inactive) | > 100 µM (inactive) | > 100 µM (inactive) | > 100 µM (inactive) | – | > 100 µM (inactive) | > 100 µM (inactive) | > 100 µM (inactive) | > 100 µM (inactive) |
| NC(CCC(=O)NC(CSCC1C(=O)Nc2ccccc21)C(=O)NCC(=O)O)C(=O)O (centres undefined) | 9.4 µM (inactive) | 0.855 µM (active) | 4.16 µM (inactive) | 5.75 µM (inactive) | 7.52 µM (inactive) | 1.6 µM (inactive) | 23.6 µM (inactive) | 48 µM (inactive) | 6.17 µM (inactive) | 7.62 µM (inactive) | 8.41 µM (inactive) | 2.02 µM (inactive) | 44.3 µM (inactive) | 14.8 µM (inactive) | 15.5 µM (inactive) | 11.9 µM (inactive) | 14.8 µM (inactive) | 21.6 µM (inactive) | 6 µM (inactive) | 7.41 µM (inactive) |
| Cc1cc(=O)oc2c(CN3CCCCC3)c(O)ccc12 | > 100 µM (inactive) | > 100 µM (inactive) | > 100 µM (inactive) | > 100 µM (inactive) | > 100 µM (inactive) | > 100 µM (inactive) | > 100 µM (inactive) | > 100 µM (inactive) | > 100 µM (inactive) | > 100 µM (inactive) | > 100 µM (inactive) | > 100 µM (inactive) | > 100 µM (inactive) | > 100 µM (inactive) | > 100 µM (inactive) | > 100 µM (inactive) | > 100 µM (inactive) | > 100 µM (inactive) | > 100 µM (inactive) | > 100 µM (inactive) |
| O=C(O)[C@@H]1C[C@@H](O)CN1 | > 100 µM (inactive) | > 100 µM (inactive) | > 100 µM (inactive) | > 100 µM (inactive) | > 100 µM (inactive) | > 100 µM (inactive) | > 100 µM (inactive) | > 100 µM (inactive) | > 100 µM (inactive) | > 100 µM (inactive) | > 100 µM (inactive) | > 100 µM (inactive) | > 100 µM (inactive) | > 100 µM (inactive) | > 100 µM (inactive) | > 100 µM (inactive) | > 100 µM (inactive) | > 100 µM (inactive) | > 100 µM (inactive) | > 100 µM (inactive) |
| CS(=O)(=O)Nc1ccc(Nc2c3ccccc3nc3ccccc23)cc1 | 2.41 µM (inactive) | 5.73 µM (inactive) | 4.78 µM (inactive) | 4.25 µM (inactive) | 2.57 µM (inactive) | 2.23 µM (inactive) | 0.389 µM (active) | 6.43 µM (inactive) | 0.355 µM (active) | 1.74 µM (inactive) | 4.17 µM (inactive) | 2.04 µM (inactive) | 2.03 µM (inactive) | 0.112 µM (active) | 1.66 µM (inactive) | 1.08 µM (active) | 1.71 µM (inactive) | 2.62 µM (inactive) | 3.4 µM (inactive) | 0.381 µM (active) |

Source: ChEMBL document CHEMBL1201862, “PubChem BioAssay data set” (2004)
